According to the supplement of paper PMC11208160:

Test: recombinant barcode read abundance after kanamycin selection (control-corrected) (log10(CPM+1)); higher = more efficient recombination; sequences stand for … in AGTGCAGAGAAAATCGGCCAGTTTTCTCTGCCTGCAGTCCGCATGCCGT…AGATTTATGCAGCGGACTGCCTTTCTCCCAAAGTGATAAACCGGACAGTATCATGGACCGGTTTTCCCGGTAATCCGTATTTGCAAGGTTGGTTTCACT; site = the 11-nt target
Summary of the method: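 In a pooled screen in E. coli, targets were paired with target-binding loops of the IS621 bridge RNA. Each oligo carried a promoter, a target, a barcode and the first 104 bridge RNA bases driven by J23119, and was Gibson-cloned into a vector holding the remaining 73 bp and a T7-inducible recombinase before co-electroporation with a donor plasmid. Duplicate platings went onto chloramphenicol/ampicillin LB agar as the control or onto chloramphenicol/ampicillin/kanamycin with 0.1 mM IPTG. Recombination efficiency is the averaged, control-corrected count per million of barcodes at recombinant junctions, given as log10(CPM+1).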
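Note: IS621 recombinase and bridge RNA in Escherichia coli cells.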

| Sequence | recombinant barcode read abundance (log10) |
| --- | --- |
| GTCTCTACTTGGGTTCTAACCTGTTGCCG (site GTCCCTACTCG) | 0.593 |
| GTCTCTACTTGGGTTCTAACCTGTTGCCG (site GTCGCTACTCG) | 0.117 |
| GTCTCTACTTGGGTTCTAACCTGTTGCCG (site GTCTCTACTCG) | 0.0442 |
| GTCTCTTCTTGGGTTCTAACCTGTTGCTA (site GTCTCGTCTAA) | 0.0282 |
| GTCTCTTCTTGGGTTCTAACCTGTTGCTA (site GTCTCTTCTTA) | 0.306 |
| GTCTTACCTTGGGTTCTAACCTGTTGCCT (site GTCATACCTAG) | 0.0521 |
| GTCTTACCTTGGGTTCTAACCTGTTGCCT (site GTCCTACCTAG) | 1.21 |
| GTCTTACCTTGGGTTCTAACCTGTTGCCT (site GTCGTACCTAG) | 0.098 |
| GTCTTACCTTGGGTTCTAACCTGTTGCCT (site GTCTTACCTAG) | 1.34 |
| GTCTTACCTTGGGTTCTAACCTGTTGCTT (site GTCTTACCTAA) | 0.74 |
| GTCTTACCTTGGGTTCTAACCTGTTGCTT (site TTCATACCTAA) | 0.128 |
| GTCTTCCCTTGGGTTCTAACCTGTTGCCG (site ATCTTACCTCG) | 0.0566 |
| GTCTTCCCTTGGGTTCTAACCTGTTGCCG (site GTCTTCCCTCG) | 1.5 |
| GTCTTCCCTTGGGTTCTAACCTGTTGCGT (site GTCATGCCTAC) | 0.0371 |
| GTCTTCCCTTGGGTTCTAACCTGTTGCGT (site GTCTTCCCTAC) | 1.74 |
| GTGAAGCCTTGGGTTCTAACCTGTTGCCT (site ATGAAGCCTAG) | 0.826 |
| GTGAAGCCTTGGGTTCTAACCTGTTGCCT (site CTGAAGCCTAG) | 0.464 |
| GTGAAGCCTTGGGTTCTAACCTGTTGCCT (site GTGAAGCCTAG) | 1.48 |
| GTGAAGCCTTGGGTTCTAACCTGTTGCCT (site TTGAAGCCTAG) | 0.421 |
| GTGACCGCTTGGGTTCTAACCTGTTGCCT (site GTAACCGCTAG) | 2 |
| GTGACCGCTTGGGTTCTAACCTGTTGCCT (site GTCACCGCTAG) | 0.235 |
| GTGACCGCTTGGGTTCTAACCTGTTGCCT (site GTGACCGCTAG) | 1.89 |

| Sequence | recombinant barcode read abundance (log10) |
| --- | --- |
| GTGACCGCTTGGGTTCTAACCTGTTGCCT (site GTTACCGCTAG) | 0.59 |
| GTGACCTCTTGGGTTCTAACCTGTTGCTG (site GGGACCTCTGA) | 0.0723 |
| GTGACCTCTTGGGTTCTAACCTGTTGCTG (site GTGACCTCTCA) | 1.51 |
| GTGAGGCCTTGGGTTCTAACCTGTTGCCT (site ATGAGGCCTAG) | 1.19 |
| GTGAGGCCTTGGGTTCTAACCTGTTGCCT (site CTGAGGCCTAG) | 0.151 |
| GTGAGGCCTTGGGTTCTAACCTGTTGCCT (site GTGAGGCCTAG) | 0.153 |
| GTGAGGCCTTGGGTTCTAACCTGTTGCCT (site TTGAGGCCTAG) | 0.0445 |
| GTGAGGTCTTGGGTTCTAACCTGTTGCCT (site GTGAGGTCTAA) | 0.107 |
| GTGAGGTCTTGGGTTCTAACCTGTTGCCT (site GTGAGGTCTAC) | 0.343 |
| GTGAGGTCTTGGGTTCTAACCTGTTGCCT (site GTGAGGTCTAG) | 1.62 |
| GTGAGGTCTTGGGTTCTAACCTGTTGCCT (site GTGAGGTCTAT) | 0.442 |
| GTGAGTCCTTGGGTTCTAACCTGTTGCGT (site GTGAGTCCTAC) | 2.61 |
| GTGAGTCCTTGGGTTCTAACCTGTTGCGT (site GTTGGTCCTAC) | 0.0363 |
| GTGATCCCTTGGGTTCTAACCTGTTGCTG (site GTGAACTCTCA) | 0.0648 |
| GTGATCCCTTGGGTTCTAACCTGTTGCTG (site GTGATCCCTCA) | 1.87 |
| GTGCACACTTGGGTTCTAACCTGTTGCGG (site GTGCACACTCC) | 2.44 |
| GTGCACACTTGGGTTCTAACCTGTTGCGG (site GTGCACTCTCC) | 0.322 |
| GTGCAGACTTGGGTTCTAACCTGTTGCCT (site GTACAGACTAG) | 2.5 |
| GTGCAGACTTGGGTTCTAACCTGTTGCCT (site GTCCAGACTAG) | 0.483 |
| GTGCAGACTTGGGTTCTAACCTGTTGCCT (site GTGCAGACTAG) | 2.05 |
| GTGCAGACTTGGGTTCTAACCTGTTGCCT (site GTTCAGACTAG) | 0.367 |
| GTGCCCGCTTGGGTTCTAACCTGTTGCGG (site GTGCCCGCTCC) | 1.11 |

| Sequence | recombinant barcode read abundance (log10) |
| --- | --- |
| GTGCCCGCTTGGGTTCTAACCTGTTGCGG (site GTGCCCTCTCG) | 0.205 |
| GTGCGCCCTTGGGTTCTAACCTGTTGCGT (site GTGCGCCCTAC) | 2.13 |
| GTGCGCCCTTGGGTTCTAACCTGTTGCGT (site GTGCGCCCTCC) | 0.617 |
| GTGGAGGCTTGGGTTCTAACCTGTTGCCT (site ATGGCGGCTAG) | 0.371 |
| GTGGAGGCTTGGGTTCTAACCTGTTGCCT (site GTGGAGGCTAG) | 1.5 |
| GTGGAGTCTTGGGTTCTAACCTGTTGCGT (site GTGGAGTCTAC) | 1.49 |
| GTGGAGTCTTGGGTTCTAACCTGTTGCGT (site TATCCTCCTCG) | 0.0104 |
| GTGGCGTCTTGGGTTCTAACCTGTTGCCT (site GTGGCGTCTAG) | 1.79 |
| GTGGCGTCTTGGGTTCTAACCTGTTGCCT (site TTGGCCTCTAG) | 0.104 |
| GTGGGCGCTTGGGTTCTAACCTGTTGCCT (site GTAGGCGCTAG) | 0.973 |
| GTGGGCGCTTGGGTTCTAACCTGTTGCCT (site GTCGGCGCTAG) | 0.165 |
| GTGGGCGCTTGGGTTCTAACCTGTTGCCT (site GTGGGCGCTAG) | 1.33 |
| GTGGGCGCTTGGGTTCTAACCTGTTGCCT (site GTTGGCGCTAG) | 0.524 |
| GTGGTAACTTGGGTTCTAACCTGTTGCCT (site GTGGTAACTAG) | 0.647 |
| GTGGTAACTTGGGTTCTAACCTGTTGCCT (site GTGGTACCTAG) | 0.19 |
| GTGGTAACTTGGGTTCTAACCTGTTGCCT (site GTGGTAGCTAG) | 0.3 |
| GTGGTAACTTGGGTTCTAACCTGTTGCCT (site GTGGTATCTAG) | 0.0678 |
| GTGTACTCTTGGGTTCTAACCTGTTGCTT (site GTGGACTCTTA) | 0.0612 |
| GTGTACTCTTGGGTTCTAACCTGTTGCTT (site GTGTACTCTAA) | 1.35 |
| GTGTATCCTTGGGTTCTAACCTGTTGCAT (site GTGTATCCTAT) | 1.7 |
| GTGTATCCTTGGGTTCTAACCTGTTGCAT (site GTGTCTCCTAT) | 0.279 |
| GTGTATCCTTGGGTTCTAACCTGTTGCAT (site GTGTGTCCTAT) | 0.0301 |

| Sequence | recombinant barcode read abundance (log10) |
| --- | --- |
| GTGTATCCTTGGGTTCTAACCTGTTGCAT (site GTGTTTCCTAT) | 0.0918 |
| GTGTGAACTTGGGTTCTAACCTGTTGCCG (site GAGTTAACTCG) | 0.0504 |
| GTGTGAACTTGGGTTCTAACCTGTTGCCG (site GTGTGAACTCG) | 0.992 |
| GTGTTTGCTTGGGTTCTAACCTGTTGCCT (site GAGTTTGCTAG) | 0.0456 |
| GTGTTTGCTTGGGTTCTAACCTGTTGCCT (site GCGTTTGCTAG) | 0.0586 |
| GTGTTTGCTTGGGTTCTAACCTGTTGCCT (site GGGTTTGCTAG) | 0.0616 |
| GTGTTTGCTTGGGTTCTAACCTGTTGCCT (site GTGTTTGCTAG) | 0.596 |
| GTTAGAACTTGGGTTCTAACCTGTTGCTT (site CCATTGTCTCG) | 0.0117 |
| GTTAGAACTTGGGTTCTAACCTGTTGCTT (site GTTAGAACTAA) | 0.123 |
| GTTCAAACTTGGGTTCTAACCTGTTGCAT (site ATTCAAACTAG) | 0.245 |
| GTTCAAACTTGGGTTCTAACCTGTTGCAT (site GTTCAAACTAT) | 1.2 |
| GTTCAGACTTGGGTTCTAACCTGTTGCCT (site GTACAGACTAG) | 1.15 |
| GTTCAGACTTGGGTTCTAACCTGTTGCCT (site GTCCAGACTAG) | 0.948 |
| GTTCAGACTTGGGTTCTAACCTGTTGCCT (site GTGCAGACTAG) | 0.0632 |
| GTTCAGACTTGGGTTCTAACCTGTTGCCT (site GTTCAGACTAG) | 1.58 |
| GTTCCCTCTTGGGTTCTAACCTGTTGCTT (site GCTCACTCTAA) | 0.245 |
| GTTCCCTCTTGGGTTCTAACCTGTTGCTT (site GTTCCCTCTAA) | 1.9 |
| GTTCGGACTTGGGTTCTAACCTGTTGCGG (site GATCGGACTCC) | 0.634 |
| GTTCGGACTTGGGTTCTAACCTGTTGCGG (site GTTCGGACTCC) | 2.69 |
| GTTGCGGCTTGGGTTCTAACCTGTTGCCT (site GTTACGGCTAG) | 0.44 |
